Measurements from the NIST ThermoML archive (doi:10.1021/je201009c).

Assay: xn = mol fraction of the nth substance listed
Details: for surface tension liquid-gas: Capillary rise; for viscosity / mass density: 100.8 kPa, Liquid; for viscosity: Falling or rolling sphere viscometry; for mass density: Vibrating tube method

OCc1ccccc1 [benzenemethanol] + CCO
Details	mass density [kg/m3]	surface tension liquid-gas [mN/m]	viscosity [mPa·s]
293.15 K, x2 = 0	1045.44	39.2	6.287
293.15 K, x2 = 0.05	1038.93	38.7	5.903
293.15 K, x2 = 0.1	1032.01	38.1	5.548
293.15 K, x2 = 0.1504	1024.72	37.5	5.197
293.15 K, x2 = 0.1999	1017.09	36.8	4.871
293.15 K, x2 = 0.2502	1008.95	36.1	4.55
293.15 K, x2 = 0.3003	1000.31	35.3	4.236
293.15 K, x2 = 0.3499	991.24	34.5	3.94
293.15 K, x2 = 0.3998	981.52	33.6	3.655
293.15 K, x2 = 0.45	971.12	32.7	3.377
293.15 K, x2 = 0.5001	960.01	31.8	3.107
293.15 K, x2 = 0.55	948.23	30.9	2.857
293.15 K, x2 = 0.5999	935.57	29.9	2.623
293.15 K, x2 = 0.65	921.93	28.9	2.392
293.15 K, x2 = 0.6997	907.34	28	2.169
293.15 K, x2 = 0.75	891.49	27.1	1.971
293.15 K, x2 = 0.7999	874.42	26.1	1.782
293.15 K, x2 = 0.8496	855.94	25.2	1.611
293.15 K, x2 = 0.8998	835.44	24.3	1.454
293.15 K, x2 = 0.95	813.26	23.3	1.305
303.15 K, x2 = 0	1037.45	38.1	4.579
303.15 K, x2 = 0.05	1030.91	37.5	4.276
303.15 K, x2 = 0.1	1024.02	36.9	4.006
303.15 K, x2 = 0.1504	1016.76	36.2	3.761
303.15 K, x2 = 0.1999	1009.06	35.5	3.529
303.15 K, x2 = 0.2502	1000.9	34.8	3.321
303.15 K, x2 = 0.3003	992.29	34.1	3.117
303.15 K, x2 = 0.3499	983.16	33.3	2.924
303.15 K, x2 = 0.3998	973.34	32.5	2.735
303.15 K, x2 = 0.45	962.91	31.6	2.542
303.15 K, x2 = 0.5001	951.76	30.7	2.368
303.15 K, x2 = 0.55	939.95	29.8	2.206
303.15 K, x2 = 0.5999	927.33	28.8	2.03
303.15 K, x2 = 0.65	913.64	27.8	1.873
303.15 K, x2 = 0.6997	898.99	26.9	1.716
303.15 K, x2 = 0.75	883.14	26	1.568
303.15 K, x2 = 0.7999	865.99	25.1	1.423
303.15 K, x2 = 0.8496	847.51	24.2	1.292
303.15 K, x2 = 0.8998	827.13	23.3	1.173
303.15 K, x2 = 0.95	805.04	22.3	1.06
313.15 K, x2 = 0	1029.61	37.2	3.335
313.15 K, x2 = 0.05	1023.04	36.6	3.171
313.15 K, x2 = 0.1	1016.21	35.9	3.002
313.15 K, x2 = 0.1504	1008.86	35.3	2.841
313.15 K, x2 = 0.1999	1001.16	34.6	2.688
313.15 K, x2 = 0.2502	992.96	33.9	2.539
313.15 K, x2 = 0.3003	984.28	33.2	2.389
313.15 K, x2 = 0.3499	975.05	32.4	2.244
313.15 K, x2 = 0.3998	965.24	31.6	2.101
313.15 K, x2 = 0.45	954.84	30.7	1.955
313.15 K, x2 = 0.5001	943.67	29.8	1.819
313.15 K, x2 = 0.55	931.78	28.9	1.684
313.15 K, x2 = 0.5999	919.04	27.9	1.561
313.15 K, x2 = 0.65	905.41	26.9	1.441
313.15 K, x2 = 0.6997	890.69	26	1.332
313.15 K, x2 = 0.75	874.75	25.1	1.236
313.15 K, x2 = 0.7999	857.51	24.2	1.146
313.15 K, x2 = 0.8496	838.83	23.3	1.048
313.15 K, x2 = 0.8998	818.48	22.4	0.972
313.15 K, x2 = 0.95	796.32	21.5	0.899
323.15 K, x2 = 0	1021.5	36.3	2.545
323.15 K, x2 = 0.05	1014.86	35.6	2.439
323.15 K, x2 = 0.1	1007.98	34.9	2.337
323.15 K, x2 = 0.1504	1000.57	34.2	2.238
323.15 K, x2 = 0.1999	992.89	33.5	2.142
323.15 K, x2 = 0.2502	984.67	32.8	2.041
323.15 K, x2 = 0.3003	975.99	32.1	1.941
323.15 K, x2 = 0.3499	966.71	31.3	1.844
323.15 K, x2 = 0.3998	956.84	30.5	1.746
323.15 K, x2 = 0.45	946.37	29.6	1.649
323.15 K, x2 = 0.5001	935.23	28.7	1.556
323.15 K, x2 = 0.55	923.28	27.8	1.462
323.15 K, x2 = 0.5999	910.48	26.8	1.368
323.15 K, x2 = 0.65	896.61	25.8	1.279
323.15 K, x2 = 0.6997	881.89	24.8	1.189
323.15 K, x2 = 0.75	865.88	23.9	1.105
323.15 K, x2 = 0.7999	848.64	23	1.022
323.15 K, x2 = 0.8496	830.07	22.1	0.937
323.15 K, x2 = 0.8998	809.62	21.2	0.854
323.15 K, x2 = 0.95	787.41	20.3	0.774
